# Reference: ChEMBL document CHEMBL1201861, “Genomics of Drug Sensitity in Cancer screening data, Wellcome Trust Sanger Institute”
# What was measured:
# Assay in all cases: cells
# ASPC1 = format: functional, cell-based, Homo sapiens; settings: Homo sapiens, ASPC1;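 also: growth inhibition of AsPC-1 cells, read out with a cell viability assay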
# Description: SANGER: Inhibition of human AsPC-1 cell growth in a cell viability assay.
# BFTC-909 = format: functional, cell-based, Homo sapiens; settings: Homo sapiens, BFTC-909
# Description: SANGER: Inhibition of human BFTC-909 cell growth in a cell viability assay.
# KGN = format: functional, cell-based, Homo sapiens; settings: Homo sapiens, KGN;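 also: growth inhibition of KGN cells, read out with a cell viability assay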
# SK-MEL-1 = format: functional, cell-based; settings: Homo sapiens;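 also: growth inhibition of human SK-MEL-1 cells, read out by a cell viability assay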
# Description: SANGER: Inhibition of human SK-MEL-1 cell growth in a cell viability assay.
# OCI-AML2 = format: functional, cell-based; settings: Homo sapiens;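 also: growth inhibition of OCI-AML2 cells, read out with a cell viability assay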
# Description: SANGER: Inhibition of human OCI-AML2 cell growth in a cell viability assay.
# MDA-MB-231 = format: functional, cell-based, Homo sapiens; settings: Homo sapiens, MDA-MB-231
# Description: SANGER: Inhibition of human MDA-MB-231 cell growth in a cell viability assay.
# FaDu = format: functional, cell-based, Homo sapiens; settings: Homo sapiens, FaDu;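 also: cell viability readout of growth inhibition in FaDu cells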
# Description: SANGER: Inhibition of human FADU cell growth in a cell viability assay.
# LNCaP-Clone-FGC = format: functional, cell-based, Homo sapiens; settings: Homo sapiens, LNCaP-Clone-FGC
# Description: SANGER: Inhibition of human LNCaP-Clone-FGC cell growth in a cell viability assay.
# DOHH-2 = format: functional, cell-based; settings: Homo sapiens;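 also: growth inhibition of human DOHH-2 cells, read out with a cell viability assay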
# Description: SANGER: Inhibition of human DOHH-2 cell growth in a cell viability assay.
# SK-MES-1 = format: functional, cell-based, Homo sapiens; settings: Homo sapiens, SK-MES-1;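 also: growth inhibition of human SK-MES-1 cells, read out with a cell viability assay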
# Description: SANGER: Inhibition of human SK-MES-1 cell growth in a cell viability assay.
# MOLT-4 = format: functional, cell-based; settings: Homo sapiens;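 also: growth inhibition of MOLT-4 cells, determined with a cell viability readout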
# Description: SANGER: Inhibition of human MOLT-4 cell growth in a cell viability assay.
# ACHN = format: functional, cell-based, Homo sapiens; settings: Homo sapiens, ACHN;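 also: cell viability read-out used to gauge how strongly growth of human ACHN cells is suppressed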
# Description: SANGER: Inhibition of human ACHN cell growth in a cell viability assay.
# 8305C = format: functional, cell-based, Homo sapiens; settings: Homo sapiens, 8305C
# Description: SANGER: Inhibition of human 8305C cell growth in a cell viability assay.
# SF-539 = format: functional, cell-based, Homo sapiens; settings: Homo sapiens, SF-539;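 also: Read-out is a cell viability assay, with IC50 reflecting inhibition of cell growth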
# Description: SANGER: Inhibition of human SF539 cell growth in a cell viability assay.
# HT-3 = format: functional, cell-based, Homo sapiens; settings: Homo sapiens, HT-3;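 also: growth inhibition measured with a cell viability readout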
# Description: SANGER: Inhibition of human HT-3 cell growth in a cell viability assay.
# LS-123 = format: functional, cell-based, Homo sapiens; settings: Homo sapiens, LS-123
# HCC1419 = format: functional, cell-based, Homo sapiens; settings: Homo sapiens, HCC1419;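 also: growth inhibition of human HCC1419 cells, read out as cell viability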
# Description: SANGER: Inhibition of human HCC1419 cell growth in a cell viability assay.
# HO-1-N-1 = format: functional, cell-based, Homo sapiens; settings: Homo sapiens, HO-1-N-1;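 also: growth inhibition of human HO-1-N-1 cells, read out with a cell viability assay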
# Description: SANGER: Inhibition of human HO-1-N-1 cell growth in a cell viability assay.
# C2BBe1 = format: functional, cell-based, Homo sapiens; settings: Homo sapiens, C2BBe1;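 also: growth inhibition of C2BBe1 cells, read out through a viability assay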
# Description: SANGER: Inhibition of human C2BBe1 cell growth in a cell viability assay.
# RPMI-7951 = format: functional, cell-based, Homo sapiens; settings: Homo sapiens, RPMI-7951
# Description: SANGER: Inhibition of human RPMI-7951 cell growth in a cell viability assay.
# HEC-1 = format: functional, cell-based, Homo sapiens; settings: Homo sapiens, HEC-1;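 also: growth inhibition of the cell line, read out with a cell viability assay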
# Description: SANGER: Inhibition of human HEC-1 cell growth in a cell viability assay.
# G-402 = format: functional, cell-based, Homo sapiens; settings: Homo sapiens, G-402
# Description: SANGER: Inhibition of human G-402 cell growth in a cell viability assay.
# NTERA-2-cl-D1 = format: functional, cell-based, Homo sapiens; settings: Homo sapiens, NTERA-2-cl-D1;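 also: inhibition of cell growth, measured with a cell viability assay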
# Description: SANGER: Inhibition of human NTERA-S-cl-D1 cell growth in a cell viability assay.
# BT-20 = format: functional, cell-based, Homo sapiens; settings: Homo sapiens, BT-20;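 also: cell viability assay measuring suppression of growth in human BT-20 cells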
# Description: SANGER: Inhibition of human BT-20 cell growth in a cell viability assay.
# HCC2218 = format: functional, cell-based; settings: Homo sapiens;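 also: cell viability assay read-out, with IC50 given as the concentration that inhibits growth of the cell line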
# Description: SANGER: Inhibition of human HCC2218 cell growth in a cell viability assay.
# EW-3 = format: functional, cell-based; settings: Homo sapiens;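 also: cell viability assay read-out, IC50 reflects inhibition of growth of the EW-3 cells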
# Description: SANGER: Inhibition of human EW-3 cell growth in a cell viability assay.
# Mo = format: functional, cell-based; settings: Homo sapiens
# Description: SANGER: Inhibition of human Mo-T cell growth in a cell viability assay.
# HCT-116 = format: functional, cell-based, Homo sapiens; settings: Homo sapiens, HCT-116
# Description: SANGER: Inhibition of human HCT-116 cell growth in a cell viability assay.
# DOK = format: functional, cell-based, Homo sapiens; settings: Homo sapiens, DOK;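 also: cell viability assay read-out, values reflect inhibition of cell growth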
# Description: SANGER: Inhibition of human DOK cell growth in a cell viability assay.
# SNU-5 = format: functional, cell-based; settings: Homo sapiens;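 also: cell viability readout used to measure growth inhibition in human NCI-SNU-5 cells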
# Description: SANGER: Inhibition of human NCI-SNU-5 cell growth in a cell viability assay.
# EM-2 = format: functional, cell-based; settings: Homo sapiens;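 also: growth inhibition of EM-2 cells, read out with a cell viability assay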
# Description: SANGER: Inhibition of human EM-2 cell growth in a cell viability assay.
# CW-2 = format: functional, cell-based, Homo sapiens; settings: Homo sapiens, CW-2;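 also: growth inhibition of CW-2 cells, read out by a cell viability assay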
# Description: SANGER: Inhibition of human CW-2 cell growth in a cell viability assay.
# LB831-BLC = format: functional, cell-based, Homo sapiens; settings: Homo sapiens, LB831-BLC;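 also: growth inhibition of LB831-BLC cells, read out with a cell viability assay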
# Description: SANGER: Inhibition of human LB831-BLC cell growth in a cell viability assay.
# MC116 = format: functional, cell-based; settings: Homo sapiens;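 also: growth inhibition of MC116 cells, read out with a cell viability assay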
# Description: SANGER: Inhibition of human MC116 cell growth in a cell viability assay.
# no-10 = format: functional, cell-based, Homo sapiens; settings: Homo sapiens;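 also: growth inhibition of no-10 cells, read out with a cell viability assay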
# Description: SANGER: Inhibition of human no-10 cell growth in a cell viability assay.
# HuP-T3 = format: functional, cell-based, Homo sapiens; settings: Homo sapiens, HuP-T3;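 also: HuP-T3 cell growth inhibition, read out with a cell viability assay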
# Description: SANGER: Inhibition of human HuP-T3 cell growth in a cell viability assay.
# VM-CUB-1 = format: functional, cell-based; settings: Homo sapiens;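 also: cell viability assay measuring growth inhibition of the human VM-CUB-1 cell line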
# Description: SANGER: Inhibition of human VM-CUB-1 cell growth in a cell viability assay.
# YAPC = format: functional, cell-based, Homo sapiens; settings: Homo sapiens, YAPC;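 also: growth inhibition of YAPC cells, measured with a cell viability assay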
# Description: SANGER: Inhibition of human YAPC cell growth in a cell viability assay.
# CAS-1 = format: functional, cell-based, Homo sapiens; settings: Homo sapiens, CAS-1;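 also: growth inhibition of CAS-1 cells, measured with a cell viability assay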
# MFM-223 = format: functional, cell-based, Homo sapiens; settings: Homo sapiens, MFM-223
# Description: SANGER: Inhibition of human MFM-223 cell growth in a cell viability assay.
# A673 = format: functional, cell-based, Homo sapiens; settings: Homo sapiens, A673;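 also: growth inhibition of human A673 cells, read out through a cell viability assay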
# Description: SANGER: Inhibition of human A673 cell growth in a cell viability assay.
# KM12 = format: functional, cell-based, Homo sapiens; settings: Homo sapiens, KM12;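 also: KM12 cell growth inhibition, read out with a cell viability assay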
# Description: SANGER: Inhibition of human KM12 cell growth in a cell viability assay.
# A204 = format: functional, cell-based, Homo sapiens; settings: Homo sapiens, A204;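 also: growth inhibition of human A204 cells, read out with a cell viability assay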
# Description: SANGER: Inhibition of human A204 cell growth in a cell viability assay.
# CAL-54 = format: functional, cell-based, Homo sapiens; settings: Homo sapiens, CAL-54;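 also: growth inhibition of CAL-54 cells, read out by a viability measurement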
# Description: SANGER: Inhibition of human CAL-54 cell growth in a cell viability assay.
# GT3TKB = format: functional, cell-based, Homo sapiens; settings: Homo sapiens, GT3TKB;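 also: growth inhibition of the cell line, read out with a cell viability assay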
# Description: SANGER: Inhibition of human GT3TKB cell growth in a cell viability assay.
# NCI-H2087 = format: functional, cell-based, Homo sapiens; settings: Homo sapiens, NCI-H2087;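 also: growth inhibition determined with a cell viability readout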
# Description: SANGER: Inhibition of human NCI-H2087 cell growth in a cell viability assay.
# NCI-H1693 = format: functional, cell-based, Homo sapiens; settings: Homo sapiens, NCI-H1693;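 also: growth inhibition of the human cell line, read out with a cell viability assay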
# Description: SANGER: Inhibition of human NCI-H1693 cell growth in a cell viability assay.
# T98G = format: functional, cell-based, Homo sapiens; settings: Homo sapiens, T98G;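 also: growth inhibition of T98G cells, read out by a cell viability assay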
# Description: SANGER: Inhibition of human T98G cell growth in a cell viability assay.
# SK-MEL-2 = format: functional, cell-based, Homo sapiens; settings: Homo sapiens, SK-MEL-2;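 also: growth inhibition of human SK-MEL-2 cells measured with a cell viability assay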
# Description: SANGER: Inhibition of human SK-MEL-2 cell growth in a cell viability assay.
# SK-NEP-1 = format: functional, cell-based; settings: Homo sapiens;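 also: growth inhibition of human SK-NEP-1 cells, read out by a cell viability assay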
# Description: SANGER: Inhibition of human SK-NEP-1 cell growth in a cell viability assay.
# HGC-27 = format: functional, cell-based, Homo sapiens; settings: Homo sapiens, HGC-27;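 also: growth inhibition of human HGC-27 cells, read out in a cell viability assay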
# Description: SANGER: Inhibition of human HGC-27 cell growth in a cell viability assay.
structure (smiles),measurement,setting,value
C=CCc1cccc(/C=N/NC(=O)CN2CCN(Cc3ccccc3)CC2)c1O [PAC-1],IC50,ASPC1,> 2560 nM
same,IC50,BFTC-909,> 2560 nM
same,IC50,KGN,2150 nM
same,IC50,SK-MEL-1,> 2560 nM
same,IC50,OCI-AML2,> 2560 nM
same,IC50,MDA-MB-231,> 2560 nM
same,IC50,FaDu,> 2560 nM
same,IC50,LNCaP-Clone-FGC,> 2560 nM
same,IC50,DOHH-2,> 2560 nM
same,IC50,SK-MES-1,> 2560 nM
same,IC50,MOLT-4,> 2560 nM
same,IC50,ACHN,1690 nM
same,IC50,8305C,> 2560 nM
same,IC50,SF-539,> 2560 nM
same,IC50,HT-3,> 2560 nM
same,IC50,LS-123,> 2560 nM
same,IC50,HCC1419,> 2560 nM
same,IC50,HO-1-N-1,> 2560 nM
same,IC50,C2BBe1,> 2560 nM
same,IC50,RPMI-7951,> 2560 nM
same,IC50,HEC-1,> 2560 nM
same,IC50,G-402,> 2560 nM
same,IC50,NTERA-2-cl-D1,> 2560 nM
same,IC50,BT-20,> 2560 nM
same,IC50,HCC2218,> 2560 nM
same,IC50,EW-3,> 2560 nM
same,IC50,Mo,> 2560 nM
same,IC50,HCT-116,> 2560 nM
same,IC50,DOK,> 2560 nM
same,IC50,SNU-5,> 2560 nM
same,IC50,EM-2,> 2560 nM
same,IC50,CW-2,> 2560 nM
same,IC50,LB831-BLC,> 2560 nM
same,IC50,MC116,1210 nM
same,IC50,no-10,> 2560 nM
same,IC50,HuP-T3,> 2560 nM
same,IC50,VM-CUB-1,> 2560 nM
same,IC50,YAPC,> 2560 nM
same,IC50,CAS-1,> 2560 nM
same,IC50,MFM-223,> 2560 nM
same,IC50,A673,> 2560 nM
same,IC50,KM12,> 2560 nM
same,IC50,A204,> 2560 nM
same,IC50,CAL-54,> 2560 nM
same,IC50,GT3TKB,> 2560 nM
same,IC50,NCI-H2087,> 2560 nM
same,IC50,NCI-H1693,> 2560 nM
same,IC50,T98G,> 2560 nM
same,IC50,SK-MEL-2,> 2560 nM
same,IC50,SK-NEP-1,> 2560 nM
same,IC50,HGC-27,> 2560 nM
Cc1ccc(Nc2nccc(N(C)c3ccc4c(C)n(C)nc4c3)n2)cc1S(N)(=O)=O [PAZOPANIB],IC50,ASPC1,> 8000 nM
same,IC50,BFTC-909,> 8000 nM
same,IC50,KGN,4070 nM
same,IC50,SK-MEL-1,> 8000 nM
same,IC50,OCI-AML2,> 8000 nM
same,IC50,MDA-MB-231,> 8000 nM
same,IC50,FaDu,> 8000 nM
same,IC50,LNCaP-Clone-FGC,> 8000 nM
same,IC50,DOHH-2,> 8000 nM
same,IC50,SK-MES-1,6870 nM
same,IC50,MOLT-4,> 8000 nM
same,IC50,ACHN,> 8000 nM
same,IC50,8305C,> 8000 nM
same,IC50,SF-539,> 8000 nM
same,IC50,HT-3,> 8000 nM
same,IC50,LS-123,> 8000 nM
same,IC50,HCC1419,> 8000 nM
same,IC50,HO-1-N-1,> 8000 nM
same,IC50,C2BBe1,> 8000 nM
same,IC50,RPMI-7951,> 8000 nM
same,IC50,HEC-1,> 8000 nM
same,IC50,G-402,532 nM
same,IC50,NTERA-2-cl-D1,> 8000 nM
same,IC50,BT-20,> 8000 nM
same,IC50,HCC2218,> 8000 nM
same,IC50,EW-3,> 8000 nM
same,IC50,Mo,> 8000 nM
same,IC50,HCT-116,> 8000 nM
same,IC50,DOK,> 8000 nM
same,IC50,SNU-5,> 8000 nM
same,IC50,EM-2,> 8000 nM
same,IC50,CW-2,> 8000 nM
same,IC50,LB831-BLC,2550 nM
same,IC50,MC116,> 8000 nM
same,IC50,no-10,> 8000 nM
same,IC50,HuP-T3,> 8000 nM
same,IC50,VM-CUB-1,> 8000 nM
same,IC50,YAPC,> 8000 nM
same,IC50,CAS-1,7760 nM
same,IC50,MFM-223,> 8000 nM
same,IC50,A673,> 8000 nM
same,IC50,KM12,> 8000 nM
same,IC50,A204,109 nM
same,IC50,CAL-54,3280 nM
same,IC50,GT3TKB,> 8000 nM
same,IC50,NCI-H2087,> 8000 nM
same,IC50,NCI-H1693,> 8000 nM
same,IC50,T98G,> 8000 nM
same,IC50,SK-MEL-2,> 8000 nM
same,IC50,SK-NEP-1,> 8000 nM
same,IC50,HGC-27,6200 nM
